Test results taken from PubChem BioAssay (NCI).
Several values for one entry are separate records, joined by “and”; a condition that tells them apart may be missing. Equal values may be shown once.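 Growth conditions: 96-well plates. Treatment: test compound, 48 hours, 5 concentrations. Analysis: linear interpolation between bracketing concentrations; unreached endpoints set to highest concentration. GI50: concentration for 50% inhibition of growth. TGI marks complete inhibition of growth.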

Tests used:
Assay in all cases: growth of human tumour cells (NCI), 48 h
RXF 393 renal = system: RXF 393 renal
PC-3 prostate = system: PC-3 prostate
SK-MEL-5 melanoma = system: SK-MEL-5 melanoma
HOP-92 NSCLC = system: HOP-92 NSCLC
SF-295 CNS = system: SF-295 CNS
A498 renal = system: A498 renal
MALME-3M melanoma = system: MALME-3M melanoma
A549 NSCLC = system: A549 NSCLC
OVCAR-4 ovarian = system: OVCAR-4 ovarian
UACC-62 melanoma = system: UACC-62 melanoma

Compound	TGI (RXF 393 renal)	TGI (PC-3 prostate)	TGI (SK-MEL-5 melanoma)	TGI (HOP-92 NSCLC)	TGI (SF-295 CNS)	TGI (A498 renal)	TGI (MALME-3M melanoma)	TGI (A549 NSCLC)	TGI (OVCAR-4 ovarian)	TGI (UACC-62 melanoma)	GI50 (RXF 393 renal)	GI50 (PC-3 prostate)	GI50 (SK-MEL-5 melanoma)	GI50 (UACC-62 melanoma)	GI50 (HOP-92 NSCLC)	GI50 (SF-295 CNS)	GI50 (A498 renal)	GI50 (MALME-3M melanoma)	GI50 (A549 NSCLC)	GI50 (OVCAR-4 ovarian)
CC(C)=CCN1c2ccccc2NC(=O)CC1C (stereo not drawn)	> 100 µM	> 100 µM	85 µM	> 100 µM	> 100 µM	> 100 µM	> 100 µM	> 100 µM	73.8 µM	–	–	–	–	–	–	–	–	–	–	–
C[C@@H](NC(C#N)c1ccco1)c1ccccc1 (stereo partly drawn)	> 100 µM	> 100 µM	> 100 µM	> 100 µM	> 100 µM	> 100 µM	> 100 µM	> 100 µM	–	> 100 µM	–	–	–	–	–	–	–	–	–	–
CCSC1=NC2C(N(CC)C(=O)N2CC)N1/N=C/C=C/c1ccccc1[N+](=O)[O-] (stereo not drawn)	> 100 µM	> 100 µM	0.538 µM	> 83.8 µM	> 100 µM	0.209 µM	> 100 µM	> 100 µM	> 100 µM	> 100 µM	0.033 µM	0.187 µM	0.112 µM	0.0604 µM	1.17 µM	0.0612 µM	0.0283 µM	0.135 µM	0.307 µM	0.28 µM
Cc1ccc2cnc(N)c(C#Cc3cc(C(=O)Nc4ccc(CN5CCN(C)CC5)c(C(F)(F)F)c4)cnc3C)c2c1	1.35 µM	1.56 µM	2.49 µM	1.64 µM	1.75 µM	1.57 µM	0.631 µM	–	8.36 µM	1.08 µM	0.676 µM	0.734 µM	1.08 µM	0.234 µM	0.217 µM	0.771 µM	0.837 µM	0.146 µM	–	0.436 µM
CC(=O)c1c(C(F)(F)F)n([O-])c2ccccc2[n+]1=O	6.03 µM	10.8 µM	1.87 µM	4.35 µM	4.53 µM	4.48 µM	3.06 µM	14.3 µM	3.9 µM	3.02 µM	1.57 µM	1.3 µM	0.494 µM	0.7 µM	1.22 µM	1.07 µM	1.56 µM	0.652 µM	2.28 µM	0.969 µM
C1CSCCCSCCCSCCCSCCCSCCCSCCCSCCCSC1	> 100 µM	> 100 µM	> 100 µM	> 100 µM	> 100 µM	> 100 µM	> 100 µM	> 100 µM	> 100 µM	–	–	–	–	–	–	–	–	–	–	–
CO/N=C(\COc1ccc2c(c1)[nH]c1ccccc12)c1ccc(OC)cc1	> 100 µM	> 100 µM	> 100 µM	> 100 µM	99.2 µM	46 µM	74.6 µM	25.2 µM	> 100 µM	> 100 µM	15.8 µM	18.3 µM	15.7 µM	26.6 µM	11.9 µM	13.6 µM	19.2 µM	9.71 µM	5.29 µM	10.5 µM
COc1ccc2c(c1)C(=O)/C(=C/c1cccc(OCC(=O)c3ccccc3)c1)CC2	8.05 µM	> 100 µM	16.5 µM	0.792 µM	> 100 µM	80.8 µM	> 100 µM	> 100 µM	> 100 µM	> 100 µM	0.0502 µM	4.92 µM	4.14 µM	12.8 µM	–	10.3 µM	17.3 µM	28.5 µM	36.6 µM	12.5 µM
O=C(Oc1cccnc1)c1cccnc1Nc1ccnc(C(F)(F)F)c1	80.4 µM	56.1 µM	63.4 µM	> 100 µM	> 100 µM	41 µM	69.8 µM	> 100 µM	> 100 µM	24.1 µM	21.3 µM	7.03 µM	6.99 µM	5.78 µM	> 100 µM	44.4 µM	19.6 µM	13 µM	> 100 µM	> 100 µM
CN(C)CCNC(=O)Cn1ccc(=O)c2cc([N+](=O)[O-])ccc21	> 100 µM	> 100 µM	> 100 µM	> 100 µM	> 100 µM	> 100 µM	> 100 µM	> 100 µM	–	> 100 µM	–	–	–	–	–	–	–	–	–	–
FC(F)(F)c1cccc(-c2nc3nc(Cl)c(Cl)nc3[nH]2)c1	27 µM	9.37 µM	3.16 µM	9.79 µM	> 100 µM	6.12 µM	12.5 µM	> 40.3 µM	> 41.6 µM	24.5 µM	–	–	–	–	–	–	–	–	–	–
c1ccc(-c2nc(-c3ccccn3)nc(-c3ccccn3)n2)nc1	> 100 µM	> 100 µM	47.1 µM	92 µM	> 100 µM	> 100 µM	> 100 µM	> 100 µM	> 100 µM	> 100 µM	> 100 µM	48.1 µM	17.2 µM	28 µM	8.99 µM	21.2 µM	86.9 µM	35.3 µM	47.9 µM	18.6 µM
Cn1ncc(-c2ccc3c(=O)[nH]nc(CN)c3c2)c1-c1c(F)c(Cl)cc(OC2CC2)c1C#N	21.4 µM and 12.9 µM	66.8 µM and 48.2 µM	24.4 µM and 27.5 µM	31.1 µM and 25.5 µM	28.4 µM and 27.2 µM	29.8 µM and 27.5 µM	28.8 µM and 25.5 µM	33.9 µM and 32.2 µM	29.1 µM and 26.2 µM	–	6.22 µM and 2.24 µM	19.9 µM and 17.1 µM	12 µM and 14.3 µM	–	12.9 µM and 10.1 µM	14.3 µM and 13.3 µM	16 µM and 14.3 µM	14.2 µM and 12.2 µM	15.8 µM and 15.4 µM	14.5 µM and 12.6 µM
CC(CO)Nc1cc(-c2[nH]c3cccnc3c2-c2ccc(F)cc2)ccn1 (stereo not drawn)	> 25 µM	> 25 µM	> 25 µM	> 25 µM	> 25 µM	25 µM	> 25 µM	> 25 µM	> 25 µM	> 25 µM	12.5 µM	21.5 µM	10.3 µM	11.4 µM	2.74 µM	> 25 µM	4.36 µM	16.9 µM	8.47 µM	> 25 µM
CCOc1ccccc1CCN=C1NC(=O)/C(=C/c2ccc3ncccc3c2)S1	10.5 µM	3.99 µM	15.2 µM	14.6 µM	> 6 µM	12.8 µM	10.6 µM	> 25 µM	> 22.9 µM	10.3 µM	1.31 µM	0.562 µM	2.05 µM	1.48 µM	3.28 µM	0.672 µM	0.744 µM	3 µM	1.23 µM	1.36 µM
COc1cc(C)ccc1C(=O)c1ccc(C)cc1OC	4.53 µM	> 100 µM	24.6 µM	–	43.4 µM	39.6 µM	> 100 µM	> 100 µM	> 100 µM	> 100 µM	1.66 µM	4.08 µM	2.99 µM	4.45 µM	–	1.95 µM	1.24 µM	4.67 µM	3.35 µM	45.1 µM
N#CC(C#N)=C/C=C(\Cl)c1ccc(Cl)cc1	34.9 µM	> 46.2 µM	11.5 µM	11.4 µM	36.4 µM	38.6 µM	7.63 µM	39.3 µM	55.6 µM	22.8 µM	7.63 µM	8.62 µM	3.13 µM	6.13 µM	3.81 µM	9.73 µM	20.5 µM	2.16 µM	17.4 µM	5.12 µM
CN(C)c1cc2ccccc2oc1=O	> 100 µM	> 100 µM	> 100 µM	> 100 µM	> 100 µM	> 100 µM	> 100 µM	> 100 µM	> 100 µM	> 100 µM	–	–	–	–	–	–	–	–	–	–
CCN1C(=O)N(CC)C2C1NN=c1s/c(=C\c3ccc(Cl)cc3Cl)c(=O)n12 (stereo not drawn)	14.7 µM	> 53.4 µM	0.0763 µM	64 µM	27.1 µM	0.0667 µM	> 75 µM	> 55.5 µM	> 95.9 µM	> 51.5 µM	0.0327 µM	0.0408 µM	0.0247 µM	0.064 µM	0.275 µM	0.0315 µM	0.0194 µM	0.0777 µM	0.0369 µM	0.0792 µM
COc1ccc(-c2noc(C(=O)O)c2-c2cc(OC)c(OC)c(OC)c2)cc1	6.56 µM	> 100 µM	> 100 µM	> 100 µM	> 100 µM	7.02 µM	> 100 µM	> 100 µM	> 100 µM	> 100 µM	1.94 µM	1.33 µM	1.3 µM	11.1 µM	3.54 µM	1.57 µM	1.43 µM	8.02 µM	4.75 µM	9.53 µM
Cc1ccc(S(=O)(=O)SC/C=C\CSS(=O)(=O)c2ccc(C)cc2)cc1	77.1 µM and 36.6 µM	> 100 µM	> 100 µM	> 72.7 µM and 37.9 µM	> 95.7 µM and 50.7 µM	> 100 µM	> 94.9 µM and 43.8 µM	> 100 µM	> 100 µM and 41.2 µM	> 79.9 µM and 45.5 µM	–	–	–	–	–	–	–	–	–	53.1 µM and 20.1 µM
C/C(CC(O)(C(F)(F)F)C(F)(F)F)=N\NC(N)=O	> 10 µM	> 10 µM	> 10 µM	> 10 µM	> 10 µM	> 10 µM	> 10 µM	> 10 µM	> 10 µM	> 10 µM	–	–	–	–	–	–	–	–	–	–
COc1cc(/C=C/C(=O)/C=C/c2cc(OC)c3c(c2)OCO3)cc2c1OCO2	6.57 µM	> 100 µM	> 100 µM	> 100 µM	> 100 µM	> 100 µM	> 100 µM	15.1 µM	> 100 µM	> 100 µM	2.65 µM	72.2 µM	5.59 µM	16.3 µM	58.5 µM	11.3 µM	> 100 µM	> 100 µM	3.05 µM	52.8 µM
O=S(=O)(Nc1ccc(Br)cc1)c1ccc(-c2cnc(C3CC3)o2)cc1	7.6 µM	15.5 µM	11.6 µM	18.6 µM	11.8 µM	2.63 µM	17.8 µM	22.5 µM	18 µM	13.7 µM	1.61 µM	2.67 µM	2.49 µM	1.39 µM	3.39 µM	1.13 µM	0.31 µM	1.66 µM	3.85 µM	3.8 µM
COC(=O)C1=C(O)C(C(=O)OC)C2CC(=O)CC1C2(C)C (stereo not drawn)	> 100 µM	> 100 µM	> 100 µM	> 100 µM	> 100 µM	> 100 µM	> 100 µM	> 100 µM	> 100 µM	> 100 µM	–	–	–	–	–	–	–	–	–	–
CC1=C([Se]CC(OC(=O)CC[Se]c2ccccc2)C(=O)NC(C)(C)C)C(=O)c2ccccc2C1=O (stereo not drawn)	–	2.8 µM	3.27 µM	2.92 µM	1.37 µM	6.42 µM	4.46 µM	3.61 µM	3 µM	2.83 µM	–	1.48 µM	1.82 µM	1.48 µM	1.55 µM	0.316 µM	2.82 µM	2.1 µM	1.63 µM	1.61 µM
c1ccc(C2ONC3=NCCN32)cc1 (stereo not drawn)	> 100 µM	78.2 µM	49.6 µM	–	> 100 µM	9.02 µM	> 100 µM	> 100 µM	> 100 µM	> 100 µM	82.9 µM	18.8 µM	0.995 µM	39.4 µM	–	48.3 µM	1.97 µM	62.9 µM	51.1 µM	> 100 µM
CCOC(=O)Oc1c(OC)cc(C(=O)c2ccc(OC)c(O)c2OC)cc1OC	–	> 100 µM	55.6 µM	> 100 µM	49.7 µM	17 µM	> 100 µM	> 100 µM	> 100 µM	> 100 µM	–	0.562 µM	0.475 µM	3.82 µM	0.727 µM	0.524 µM	3.19 µM	0.686 µM	3.96 µM	6.04 µM
CC(=O)c1c(O)c(C)c(O)c(Cc2c(O)c3c(c(C(=O)/C=C/c4ccccc4)c2O)OC(C)(C)C=C3)c1O	–	5.18 µM	5.75 µM	6.08 µM	11.6 µM	6.71 µM	12.6 µM	5.13 µM	29.4 µM	10 µM	–	–	–	–	–	–	–	–	–	–
